Results published in patent US20110178052A1, “9-ALPHA ESTRATRIENE DERIVATIVES AS ER-BETA SELECTIVE LIGANDS FOR THE PREVENTION AND TREATMENT OF INTESTINAL CANCER” (Bayer Schering Pharma Aktiengesellschaft, priority 2008, published 2011).
“Also recorded” adds a separate entry of the source.

Assays:
Assay type in all cases: in vivo, rat
OVX rats = assay: Uterine wet weights of ovariectomized rats after 3 weeks of treatment; details: for uterine wet weights: s.c., 3 weeks, E2 4 μg, GEN 10 mg, ALPHA 10 μg, BETA I 100 μg kg-1 b.wt d-1, vs OVX
Description: (§1) Post pubertal animals were ovariectomized (OVX) at the age of three months and weighing 200-220 g. After 14 days of endogenous hormonal decline the animals were treated with the test compounds or vehicle for three weeks. The animals were randomly allocated to treatment and vehicle groups (n=6). E2 (4 μg kg-1 b.wt d-1), GEN (10 mg kg-1 b.wt d-1), ALPHA (10 μg kg-1 b.wt d-1), BETA 1 (100 μg kg-1 b.wt d-1), BETA II (5-15-50 μg kg-1 b.wt d-1) and ICI (3 mg kg-1 b.wt d-1) were dissolved in dimethylsulfoxide (DMSO) (200 μl/KG b. wt/d) and corn oil (800 μl/KG b. wt/d) for s.c. administration.
(§2) Animals were sacrificed by decapitation after light anesthesia with CO2 inhalation. Uteri and intestinal tissues were prepared free of fat and were fixed in 4% formalin (for immunohistochemical analysis) and liquid nitrogen (for molecular biology). The uterine wet weights were determined.

PCNA [1] = assay: Immunohistochemical staining of PCNA in ileal mucosa cells; details: OVX rats, s.c., 3 weeks; E2 4 μg, GEN 10 mg, ALPHA 10 μg, BETA I 100 μg kg-1 b.wt d-1
Description: as §1, §2
(§3) Formalin-fixed intestinal samples were embedded in paraffin, sliced with a microtome (7 μm sections). After deparaffinization, antigen retrieval was performed in an incubator for 20 h at 60° C. in 0.01 M citrate buffer pH 6.0.
Subsequently, endogenous peroxidases were blocked for 20 min. with 3% hydrogen peroxide and the slides were covered with a 0,25% Triton X-100 solution for 10 min.
The primary antibody, PCNA Clone PC10 (Dako, Glostrup, Denmark) was applied at dilutions of 1:100, respectively.
After 1 h incubation with the primary antibodies, samples were incubated with the secondary antibody: Polyclonal Goat Anti-Mouse Immunglobulins/Biotinylated (Dako, Glostrup, Denmark).
Afterwards the sections were covered with Streptavidin-biotinylated Horseradish Peroxidase Complex (GE Healthcare, Little Chalfont Buckinghamshire, UK) at a dilution of 1:400. The samples were developed with DAB for 10 min. For negative controls, slides were immunostained in the absence of the primary antibody.
Quantitative analysis was performed in complete crypts of normal mucosa. Brown nuclear staining was indicative of a positive PCNA signal.

PCNA [2] = assay: Western Blot analysis of PCNA in ileal mucosa; details: for PCNA expression of intestinal mucosa cells, Western Blot densitometric evaluation: OVX rats, s.c., 3 weeks, E2 4 μg, GEN 10 mg, ALPHA 10 μg, BETA I 100 μg kg-1 b.wt d-1
Description: as §1
(§4) Ileal mucosa and rectal colon were dissected from the animals and immediately stored in liquid nitrogen. Pooled frozen tissue (n=6 animals per group) was powdered and homogenized in a buffer (623.5 nM Tris pH 8 EDTA) containing enzyme inhibitors (5 mg/ml aprotonin, 5 mg/ml leupeptin, 1 mg/ml pepstatin-A, 5 mg/ml antipain, 100 mM pefac in 0.5 M EDTA, pH 8). Protein concentrations were determined by the method of Lowry (Dc Protein Assay, Bio-Rad). Equal amounts of sample (40 μg protein) were loaded on a Protean II ready Gel (Bio-Rad).
(§5) After electrophoresis and separation, samples were transferred onto nitrocellulose membranes and blocked with 5% BSA in Phosphate (100 mM)-buffered saline solution (pH 7.4) at room temperature for 2 hours. The immobilized proteins were quantitatively detected using specific antibodies for actin and GAPDH (A5060 and G8795, Sigma-Aldrich, Steinheim, Germany), PCNA Clone PC 10 (Dako, Glostrup, Denmark), M30 Cytodeath (ALX-804-590, Alexis, San Diego, Calif., USA) and active caspase-3 (557035, BD Pharmingen, Heidelberg, Germany).
(§6) Polyclonal Swine Anti-Rabbit Immunglobulins/HRP and Polyclonal Rabbit Anti-Mouse Immunglobulins/HRP (P0217 and P0260, Dako, Glostrup, Denmark) were used as species-specific HRP-conjugated secondary antibodies.
(§7) Blot signals were visualized by the chemoluminescent POD-Substrate (Lumi-Light Plus, Roche Diagnostics, Mannheim, Germany) and a Fluorchem Luminescent Imager (Alpha Innotech, CA, USA).
(§8) The protein bands were quantified by densitometry using ImageJ 1.38. To account for in homogenous protein loading of the slots we calculated the ratio of […] (PCNA, M30, active caspase-3).

active caspase-3 = assay: Western Blot analysis of active caspase-3 in ileal mucosa; details: for activation of caspase-3: OVX rats, s.c., 3 weeks, E2 4 μg, GEN 10 mg, ALPHA 10 μg, BETA I 100 μg kg-1 b.wt d-1
Description: as §1, §4, §5, §6, §7, §8

PCNA mRNA = PCNA mRNA expression in the intestinal mucosa; details: OVX rats, FIG. 3B
Description: as §1

PCNA [3] = assay: Immunohistochemical staining of PCNA in colonic mucosa cells; details: OVX rats, immunohistochemistry of rectal colonic cross sections; BETA II at 5 μg/Kg
Description: as §1, §2, §3
Subsequently, endogenous peroxidases were blocked for 20 min. with 3% hydrogen peroxide and the slides were covered with a 0,25% Triton X-100 solution for 10 min. […]
Quantitative analysis was performed in complete crypts of normal mucosa. […]

cytokeratin 18 (M 30) = assay: Western Blot analysis of cytokeratin 18 cleavage (M30) in colon; details: OVX rats, BETA II at 5 μg
Description: as §1
Ileal mucosa and rectal colon were dissected from the animals and immediately stored in liquid nitrogen. […] Protein concentrations were determined by the method of Lowry (Dc Protein Assay, Bio-Rad). Equal amounts of sample (40 μg protein) were loaded on a Protean II ready Gel (Bio-Rad).
as §5, with “Germany). […]” for “Germany).”

intestinal mucosa = assay: Doses effect of BETA II on the intestinal mucosa
Description: as §1
BETA II was tested at 5, 15 and 50 μg kg-1 b.wt d-1.
Ileal mucosa and rectal colon were dissected from the animals and immediately stored in liquid nitrogen. […] Protein concentrations were determined by the method of Lowry (Dc Protein Assay, Bio-Rad). Equal amounts of sample (40 μg protein) were loaded on a Protean II ready Gel (Bio-Rad). […]
as §8

[4] = BETA I and BETA II at the same concentration (5 μg), pooled ileal tissue, FIG. 6
[5] = OVX rats co-treated with BETA I 100 μg and ICI 3 mg kg-1 b.wt d-1

Row | SMILES | uterine wet weights (OVX rats) | PCNA protein expression, immunostaining of ileal cross sections (PCNA [1]) | PCNA expression of intestinal mucosa cells, Western Blot densitometric evaluation (PCNA [2]; pooled ileal tissue) | activation of caspase-3 (active caspase-3; pooled ileal tissue) | PCNA mRNA Expression in the intestinal Mucosa (PCNA mRNA) | PCNA expression in colonic mucosa cells (PCNA [3]) | cleavage of cytokeratin 18 (M 30) in colonic mucosa cells (cytokeratin 18 (M 30)) | further results
1 | C[C@]12CC[C@@H]3c4ccc(O)cc4CC[C@H]3[C@@H]1C[C@H]1OC(=O)C[C@]12O [ALPHA, 3,17-dihydroxy-19-nor-17α-pregna-1,3,5(10)-triene-21,16α-lactone] | strongly increased | slightly induced | elevation | moderately |  |  |  | 
2 | C=C[C@@]12CCc3cc(O)ccc3[C@H]1CC[C@@]1(C)[C@H]2CC[C@@H]1O [BETA I, 8β-vinyl-estra-1,3,5(10)-triene-3,17β-diol] | no significant uterus stimulation | significantly reduced | reduced | dramatically promoted | diminished |  |  | 
3 | C=C[C@]12CC[C@]3(C)[C@@H](F)[C@H](O)C[C@H]3[C@@H]1CCc1cc(O)ccc12 [BETA II, 17β-Fluoro-9α-vinyl-estra-1,3,5(10)-triene-3,16α-diol] |  |  |  |  |  | reduced | dramatically induced; also recorded: significant stimulation | effect on the uterus weight (OVX rats; BETA II at 5 μg/kg): does not show any measurable effect; down regulation of the expression of the proliferation marker PCNA compared with BETA I (PCNA [2]; [4]): improved effect; activation of the caspase-3 compared with BETA I (active caspase-3; [4]): at a higher level; activity relative to BETA I on effects regulating the intestinal homeostasis (intestinal mucosa; BETA II at 5 μg/kg vs BETA I): about 20 times; doses effect in the intestinal mucosa (intestinal mucosa; OVX rats, BETA II tested at 5, 15 and 50 μg kg-1 b.wt d-1): strongest effect at lowest tested dose of 5 μg/kg
4 | C[C@]12CC[C@@H]3c4ccc(O)cc4CC[C@H]3[C@@H]1CC[C@@H]2O [E2, 17β-estradiol] | strong stimulation | slightly induced | not affected | remained on a low level |  |  | only marginally increased | 
5 | O=c1c(-c2ccc(O)cc2)coc2cc(O)cc(O)c12 [GEN, 4′,5,7-trihydroxyisoflavone] | faint, although significant increase | significantly reduced | reduced | moderately | diminished | reduced |  | 
6 | C[C@]12CC[C@@H]3c4ccc(O)cc4C[C@@H](CCCCCCCCC[S+]([O-])CCCC(F)(F)C(F)(F)F)[C@H]3[C@@H]1CC[C@@H]2O (some centres unmarked) [ICI] |  |  |  |  |  |  |  | effect of co-administration of ICI on anti-proliferative effect (PCNA) of BETA I (PCNA [2]; [5]): antogonization; effect of co-administration of ICI on pro-apoptotic effect (active caspase-3) of BETA I (active caspase-3; [5]): antogonization
